Data on 62 molecules can be found in PMC8041284, “Tunable Methacrylamides for Covalent Ligand Directed Release Chemistry” (Journal of the American Chemical Society, 2021).

In the first test the target is BTK (Homo sapiens, UniProt Q06187). Nature of the test: biochemical. Conditions: read-out: BTK inhibition (%).
BTK, sequence (Q06187 402-655 limits assumed): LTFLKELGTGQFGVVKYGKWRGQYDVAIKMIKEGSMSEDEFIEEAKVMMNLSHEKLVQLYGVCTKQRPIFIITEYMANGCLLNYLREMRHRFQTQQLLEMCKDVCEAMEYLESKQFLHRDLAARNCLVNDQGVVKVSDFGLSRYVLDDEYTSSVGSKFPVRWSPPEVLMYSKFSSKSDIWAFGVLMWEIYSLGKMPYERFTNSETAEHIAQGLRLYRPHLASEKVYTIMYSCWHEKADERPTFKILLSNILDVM
As to `C=C1CC[C@H]2[C@@H](/C=C(/C)C(=O)[C@@]3(O)C[C@H](C)[C@H](O)[C@@H]3[C@H]1O)C2(C)C` [PCM-0216650], the inhibition at 10 µM was -9.3%.

Still in this test, the particulars now being: read-out: BTK inhibition (%), 0.75 uM BTK, […] probe 3l, 15 min preincubation.
As to `O=C(C[C@H]1NCCC[C@@H]1O)Cn1cnc2cc(Br)c(Cl)cc2c1=O` [PCM-0102069], the inhibition at 10 µM amounted to 0%.
The same measure, in the same setting: as for `COc1cc2oc(-c3ccccc3)cc(=O)c2c(OC)c1OC` [PCM-0216616], the figure is -34%; as for `Cc1nc2ccc(NC(=O)Nc3ccnc4cccnc34)cc2o1` [PCM-0215431], -18.5%.
Still for that read-out and setting: the value for `C=C1C(=O)O[C@H]2[C@H]1CCC(C)=C1CC[C@@](C)(O)[C@@H]12` [PCM-0216540] was 23.9%.
The same measure, in the same setting: as for `Cc1cccc(C)c1OCC(=O)N[C@@H](Cc1ccccc1)[C@@H](O)C[C@H](Cc1ccccc1)NC(=O)[C@H](C(C)C)N1CCCNC1=O` [PCM-0214618], the figure is -21.8%; as for `COc1cccc(-c2c(C)n(Cc3c(F)cccc3C(F)(F)F)c(=O)n(C[C@H](NCCCC(=O)O)c3ccccc3)c2=O)c1F` [PCM-0215104], -7%; as for `Cc1cc2c3c([n+](C)c4ccc(F)cc4c3c1)-c1cc(F)ccc1N2C` [PCM-0215703], 13.1%.
Consider `CNC(=O)[C@H](Cc1ccccc1)NC(=O)[C@H](CC(C)C)[C@H](CSc1cccs1)C(=O)NO` [PCM-0215194], for which the inhibition at 10 µM was 11.6%.
The same measure, in the same setting: the value for `CCCCC(=O)OCC(=O)[C@H]1[C@H](C)C[C@H]2[C@@H]3C[C@H](F)C4=CC(=O)C=C[C@]4(C)[C@@]3(F)[C@@H](O)C[C@@]21C` [PCM-0216248] was 2.3%.
As for `COc1ccc2cc1Oc1ccc(cc1)C[C@H]1c3cc(c(OC)cc3CCN1C)Oc1c(O)c(OC)cc3c1[C@H](C2)N(C)CC3` [PCM-0214877], the inhibition at 10 µM worked out at 27.2%.
The same measure, in the same setting: the value for `OCc1ccc(-c2ccc(-c3ccc(CO)s3)o2)s1` [PCM-0095348] was 1.6%.
`CN(NC(=O)CC(=O)NN(C)C(=S)c1ccccc1)C(=S)c1ccccc1` [PCM-0094978]: the inhibition at 10 µM was -6.9%.
Take `C=C1C(=O)O[C@@H]2/C=C(\C)CC/C=C(\C)CC[C@@H]12` [PCM-0214614]: the inhibition at 10 µM is 46.7%.
Same read-out and setting: as for `C[C@H](CCC(=O)O)[C@H]1CC[C@H]2[C@@H]3CC[C@@H]4C[C@H](O)CC[C@]4(C)[C@H]3CC[C@]12C` [PCM-0214742], the figure is -8.6%; as for `O=C(CCc1ccc(O)cc1)c1c(O)cc(O[C@@H]2O[C@H](CO)[C@@H](O)[C@H](O)[C@H]2O)cc1O` [PCM-0216363], 17.8%; as for `Oc1c(Cl)cc(Cl)c2cccnc12` [PCM-0085913], -0.8%.
The same measure, in the same setting: the value for `CC(C)(C)c1cc(C=C(C#N)C#N)cc(C(C)(C)C)c1O` [PCM-0064935] was 15.2%; that for `Cc1cc(Nc2cc(N)ncn2)c(=O)n2c1C(=O)NC21CCCCC1` [PCM-0203357] was 6.9%.
Same read-out and setting: as for `COc1ccc(CCO[C@@H]2O[C@H](CO[C@@H]3OC[C@H](O)[C@H](O)[C@H]3O)[C@@H](OC(=O)/C=C/c3ccc(O)c(OC)c3)[C@H](O[C@@H]3O[C@@H](C)[C@H](O)[C@@H](O)[C@H]3O)[C@H]2O)cc1O` [PCM-0216311], the figure is 3.9%.
Turning to `COCCOC(=O)C1=C(C)NC(C)=C(C(=O)OC/C=C/c2ccccc2)C1c1cccc([N+](=O)[O-])c1` (centres unmarked) [PCM-0065102], the inhibition at 10 µM was determined as 59.9%.
`CN(CC(=O)O)C(=N)N` [PCM-0216212]: the inhibition at 10 µM is -30.6%.
The same measure, in the same setting: the value for `C[C@@H]1CCC=C2C(=O)C[C@H]3OOC(C)(C)[C@H]3[C@]21C` [PCM-0216386] was 7.7%; that for `COC(=O)C1=C(C)NC(C)=C(C(=O)O[C@@H]2CCCN(Cc3ccccc3)C2)[C@@H]1c1cccc([N+](=O)[O-])c1` [PCM-0214706] was 80.9%.
As to `OC[C@H]1O[C@@](CO)(OC[C@@]2(OC[C@@]3(OC[C@@]4(O[C@H]5O[C@H](CO)[C@@H](O)[C@H](O)[C@H]5O)O[C@H](CO)[C@@H](O)[C@@H]4O)O[C@H](CO)[C@@H](O)[C@@H]3O)O[C@H](CO)[C@@H](O)[C@@H]2O)[C@@H](O)[C@@H]1O` [PCM-0216335], the inhibition at 10 µM amounted to 6.9%.
In the case of `COc1ccc(-n2nc(C(N)=O)c3c2C(=O)N(c2ccc(N4CCCCC4=O)cc2)CC3)cc1` [PCM-0095150], the inhibition at 10 µM is -7.8%.
The same measure, in the same setting: as for `CCOC(=O)NCCCC(=O)NCCc1ccccc1` [PCM-0215356], the figure is -17%.
Regarding `Nc1nc(F)nc2c1ncn2[C@@H]1O[C@H](COP(=O)(O)O)[C@@H](O)[C@@H]1O` [PCM-0090501], the inhibition at 10 µM was -8.6%.
Still for that read-out and setting: as for `O=C1Cc2cc(CCN3CCN(c4nsc5ccccc45)CC3)c(Cl)cc2N1` [PCM-0065598], the figure is 52.1%; as for `O=S(=O)(NC1CCCCC1)c1ccc2c(c1)C(=NO)c1cc(S(=O)(=O)NC3CCCCC3)ccc1-2` [PCM-0215862], 1.5%; as for `CN(C)CCN1C(=O)c2cccc3cc(N)cc(c23)C1=O` [PCM-0095001], 0.8%.
Regarding `Cn1c2ccccc2c2c3c(c4c5ccccc5n(CCC#N)c4c21)CNC3=O` [PCM-0215344], the inhibition at 10 µM is 5.5%.
As to `O=C(O)/C=C(/CC(=O)O)C(=O)O` [PCM-0215145], the inhibition at 10 µM is -0.8%.
`COc1cc2c(Oc3ccc4[nH]c(C)cc4c3F)ncnc2cc1OCCCN1CCCC1` [PCM-0094913]: the inhibition at 10 µM is 33.8%.
Still for that read-out and setting: the value for `COC(=O)C1=CO[C@@H](O[C@@H]2O[C@H](CO)[C@@H](O)[C@H](O)[C@H]2O)[C@@H]2C(CO)=CC[C@H]12` [PCM-0087450] was -1.6%; that for `O=C(NNc1nc2cc(F)ccc2n2cccc12)c1cnccn1` [PCM-0215229] was 30.1%; that for `COCCNc1cc(NC(=O)N2CCCc3cc(CN4CCN(C)CC4=O)c(C=O)nc32)ncc1C#N` [PCM-0216117] was -16.2%.
Still for that read-out and setting: as for `C[C@@H]1O[C@@H](O[C@H]2[C@H](O[C@H]3CC[C@@]4(C)[C@@H](CC[C@]5(C)[C@@H]4CC=C4[C@@H]6CC(C)(C)CC[C@]6(C(=O)O[C@@H]6O[C@H](CO[C@@H]7O[C@H](CO)[C@@H](O)[C@H](O)[C@H]7O)[C@@H](O)[C@H](O)[C@H]6O)CC[C@]45C)[C@]3(C)CO)OC[C@H](O)[C@@H]2O)[C@H](O)[C@H](O)[C@H]1O` [PCM-0216342], the figure is -25.5%.
The same measure, in the same setting: the value for `O=C(Cc1ccc(-c2ccc(OCCN3CCOCC3)cc2)cn1)NCc1ccccc1` [PCM-0095410] was -2.8%.
With `CO[C@]1(CC[C@@H](C)CO[C@@H]2O[C@H](CO)[C@@H](O)[C@H](O)[C@H]2O)O[C@H]2C[C@H]3[C@@H]4CC=C5C[C@@H](O[C@@H]6O[C@H](CO)[C@@H](O[C@@H]7O[C@@H](C)[C@H](O)[C@@H](O)[C@H]7O)[C@H](O)[C@H]6O[C@@H]6O[C@@H](C)[C@H](O)[C@@H](O)[C@H]6O)CC[C@]5(C)[C@H]4CC[C@]3(C)[C@H]2[C@@H]1C` [PCM-0216533], the inhibition at 10 µM is -6.2%.
As to `OB1OCc2cc(F)ccc21` [PCM-0101990], the inhibition at 10 µM is -10%.
As for `COc1cc2nccc(Oc3ccc(NC(=O)c4cn(C(C)C)c(=O)n(-c5ccc(F)cc5)c4=O)cc3F)c2cc1OC` [PCM-0215831], the inhibition at 10 µM amounted to 12.4%.
On the same count and under the same terms, as for `C[C@@H]1CC[C@@]2(OC1)O[C@H]1C[C@H]3[C@@H]4CC=C5C[C@@H](O[C@@H]6O[C@H](CO)[C@@H](O[C@@H]7O[C@@H](C)[C@H](O[C@@H]8O[C@@H](C)[C@H](O)[C@@H](O)[C@H]8O)[C@@H](O)[C@H]7O)[C@H](O)[C@H]6O[C@@H]6O[C@@H](C)[C@H](O)[C@@H](O)[C@H]6O)CC[C@]5(C)[C@H]4CC[C@]3(C)[C@@]1(O)[C@@H]2C` [PCM-0216432], the figure is -12.4%; as for `C/C=C(/C)C(=O)O[C@H]1Cc2cc3ccc(=O)oc3cc2OC1(C)C` [PCM-0214953], 0.8%.
The same measure, in the same setting: as for `CCOC(=O)[C@H](CCc1ccccc1)N[C@@H](C)C(=O)N1[C@H](C(=O)O)C[C@@H]2CCC[C@@H]21` [PCM-0086308], the figure is -3.9%; as for `O=C(O)c1nn(Cc2ccc(Cl)cc2Cl)c2ccccc12` [PCM-0065622], 11%; as for `C[C@H](NC(=O)Cc1cc(F)cc(F)c1)C(=O)N[C@@H]1C(=O)N(C)c2ccccc2-c2ccccc21` [PCM-0095414], 4.8%.
The same measure, in the same setting: as for `C[C@@H](Oc1ccc2[nH]nc(/C=C/c3cnn(CCO)c3)c2c1)c1c(Cl)cncc1Cl` [PCM-0215376], the figure is 101%.
For the molecule `CCC(C)(Oc1ccc(C2(c3ccc(OC(C)(CC)C(=O)O)cc3)CCCCC2)cc1)C(=O)O` (centres unmarked) [PCM-0095329], the inhibition at 10 µM is 15.6%.
Same read-out and setting: the value for `NC(N)=NCCCC(N)C(=O)O` (centres unmarked) [PCM-0064685] was -17%; that for `Nc1nc(N)c2nc(-c3cccc(O)c3)c(-c3cccc(O)c3)nc2n1` [PCM-0094971] was 55.2%; that for `CN(C)CCN(Cc1ccccc1)c1ccccn1` [PCM-0086274] was 12.8%.
On the same count and under the same terms, as for `CC(C)Oc1ccc(-c2nn([C@@H](C)c3oc4ccc(F)cc4c(=O)c3-c3cccc(F)c3)c3ncnc(N)c23)cc1F` [PCM-0215802], the figure is -2.1%; as for `COC1[C@@H](O)[C@H](O)C(O)[C@H](O)[C@H]1O` (some centres unmarked) [PCM-0216283], 11.6%; as for `Nc1cccc2c1CN(C1CCC(=O)NC1=O)C2=O` (centres unmarked) [PCM-0094938], 14.5%.
The same measure, in the same setting: as for `CC(C)[C@H](CO)Nc1nc(Nc2cccc(Cl)c2)c2ncn(C(C)C)c2n1` [PCM-0215464], the figure is 50.3%; as for `N#CNC(=NCCCCCCOc1ccc(Cl)cc1)Nc1ccncc1` [PCM-0215563], 18.5%; as for `C=C[C@H]1CN2CC[C@H]1C[C@@H]2[C@@H](O)c1ccnc2ccccc12` [PCM-0214935], -17.1%.
`CCN(CC)C(=O)[C@]1(c2ccccc2)C[C@@H]1CN` [PCM-0095594]: the inhibition at 10 µM came to 0.8%.
For the molecule `Nc1c(CC(=O)O)cccc1C(=O)c1ccc(Br)cc1` [PCM-0214777], the inhibition at 10 µM was -47.6%.
Consider `CC(C)(O)c1coc(S(=O)(=O)NC(=O)Nc2c3c(cc4c2CCC4)CCC3)c1` [PCM-0215611], for which the inhibition at 10 µM was -0.9%.
Same read-out and setting: the value for `O=C(O)CCCN1CCC(O[C@@H](c2ccc(Cl)cc2)c2ccccn2)CC1` [PCM-0214802] was -17.9%.
